Experimental data from patent EP0029306A1, “Aminoalkyl compounds, their production and pharmaceutical compositions containing them” (GLAXO GROUP LIMITED, priority 1979, dated 1981).
Where two headings read alike, the source gives them in different places.

Test system: histamine induced gastric acid secretion
Test: Inhibition of histamine induced gastric acid secretion in the perfused rat stomach preparation
Assay type: in vivo
Conditions: sodium pentobarbitone anaesthesia

Compound | ED50 | ED50 (read-out: ED50)
3-Phenylmethyl-5-[[2-[2-[3-(1-piperidinylmethyl)phenoxy] ethoxy]ethyl]amino]-1H-1,2,4-triazole [Example 4] | 0.17 mg/kg | 
Cn1nc(N)nc1NCCCCCOc1cccc(CN2CCCCC2)c1 [1(b), 1-methyl-N^5-[5-[3-(1-piperidinyl-methyl)phenoxy]pentyl]-1H-1,2,4-triazole-3,5-diamine] |  | 0.19 mg/kg
Cn1nc(CO)nc1NCCCCCOc1cccc(CN2CCCCC2)c1 [2(a)] |  | 0.2 mg/kg
CNC(=C[N+](=O)[O-])NCCCCCOc1cccc(CN2CCCCC2)c1 [5(b), N-[5-[3-(1-Piperidinylmethyl)phenoxy]pentyl]-N^1methyl-2-nitro-l,l-ethenediamine] | 0.027 mg/kg | 
CC(=O)Nc1nc(NCCCCCOc2cccc(CN3CCCCC3)c2)n(C)n1 [Example 3] |  | 0.22 mg/kg
